Experimental data published in US7034035B2, “Fungicidal mono-, bi-, and tri-cycloheteroalkyl amides and their compositions, methods of use and preparation” (priority 1999, dated 2006).

How the values were obtained:
Ustilago maydis (USTIMA) = assay: microbe, parasite or virus in culture; type: cell-based
[1] = tested on: Rhizoctonia solani (RHIZSO); assay: microbe, parasite or virus in culture; type: cell-based
Note: test concentration or dose not given here.

SMILES | USTIMA in vitro Growth Inhibition (Ustilago maydis (USTIMA)) | RHIZSO in vitro Growth Inhibition [1]
COc1ccnc(C(=O)NC2COC(C)C2)c1O (stereo not shown) [Compound 310] | − (key: +: at least 80% growth inhibition; −: less than 80% growth inhibition) | − (key: +: at least 80% growth inhibition; −: less than 80% growth inhibition)
COc1ccnc(C(=O)NC2CC(C)(C)C(OC(=O)c3ccccc3)C(C)(C)C2)c1O (stereo not shown) [Compound 268] | − (key: +: at least 80% growth inhibition; −: less than 80% growth inhibition) | − (key: +: at least 80% growth inhibition; −: less than 80% growth inhibition)
COc1ccnc(C(=O)N[C@H]2O[C@@H](C)[C@@H](OC(C)=O)[C@@H](OC(C)=O)[C@@H]2OC(C)=O)c1O [Compound 333] | − (key: +: at least 80% growth inhibition; −: less than 80% growth inhibition) | − (key: +: at least 80% growth inhibition; −: less than 80% growth inhibition)
COc1ccnc(C(=O)NC2CCC(Sc3ccccc3)CC2)c1O (stereo not shown) [Compound 275] | − (key: +: at least 80% growth inhibition; −: less than 80% growth inhibition) | + (key: +: at least 80% growth inhibition; −: less than 80% growth inhibition)
COc1ccnc(C(=O)NC2C[C@H](C)O[C@@](C)(Cc3ccccc3)C2)c1O (stereo partly shown) [Compound 312] | − (key: +: at least 80% growth inhibition; −: less than 80% growth inhibition) | − (key: +: at least 80% growth inhibition; −: less than 80% growth inhibition)
COc1ccnc(C(=O)NC2COC3(CC(C)(C)CC(C)(C)C3)OC2)c1O [Compound 315] | − (key: +: at least 80% growth inhibition; −: less than 80% growth inhibition) | − (key: +: at least 80% growth inhibition; −: less than 80% growth inhibition)
COc1ccnc(C(=O)N[C@H]2[C@@H](OC(C)=O)O[C@H](COC(C)=O)[C@@H](OC(C)=O)[C@@H]2OC(C)=O)c1O [Compound 335] | − (key: +: at least 80% growth inhibition; −: less than 80% growth inhibition) | − (key: +: at least 80% growth inhibition; −: less than 80% growth inhibition)
COc1ccnc(C(=O)NC2CCN(C(=O)CCc3ccccc3)CC2)c1O [Compound 309] | − (key: +: at least 80% growth inhibition; −: less than 80% growth inhibition) | − (key: +: at least 80% growth inhibition; −: less than 80% growth inhibition)
COc1ccnc(C(=O)NC2CC(C)(C)C(=O)C(C)(C)C2)c1O [Compound 266] | − (key: +: at least 80% growth inhibition; −: less than 80% growth inhibition) | − (key: +: at least 80% growth inhibition; −: less than 80% growth inhibition)
CC(NC(=O)c1ncccc1O)c1ccccc1 (stereo not shown) [Compound 229] | − (key: +: at least 80% growth inhibition; −: less than 80% growth inhibition) | − (key: +: at least 80% growth inhibition; −: less than 80% growth inhibition)
O=C(NCc1cccc(Cl)c1)c1ncccc1O [Compound 219] | + (key: +: at least 80% growth inhibition; −: less than 80% growth inhibition) | + (key: +: at least 80% growth inhibition; −: less than 80% growth inhibition)
Cc1cccc(CNC(=O)c2ncccc2O)c1 [Compound 222] | − (key: +: at least 80% growth inhibition; −: less than 80% growth inhibition) | − (key: +: at least 80% growth inhibition; −: less than 80% growth inhibition)
COc1ccnc(C(=O)NC2C[C@H](C)C[C@H](c3ccccn3)C2)c1O (stereo partly shown) [Compound 259] | − (key: +: at least 80% growth inhibition; −: less than 80% growth inhibition) | − (key: +: at least 80% growth inhibition; −: less than 80% growth inhibition)
COc1ccnc(C(=O)NC2CC(c3ccco3)CC(C)(C)C2)c1O (stereo not shown) [Compound 258] | − (key: +: at least 80% growth inhibition; −: less than 80% growth inhibition) | − (key: +: at least 80% growth inhibition; −: less than 80% growth inhibition)
COc1ccnc(C(=O)NC(C)c2ccc(C(F)(F)F)cc2)c1O (stereo not shown) [Compound 247] | − (key: +: at least 80% growth inhibition; −: less than 80% growth inhibition) | − (key: +: at least 80% growth inhibition; −: less than 80% growth inhibition)
COC(=O)C(CO)NC(=O)c1nccc(OC)c1O (stereo not shown) [Compound 340] | − (key: +: at least 80% growth inhibition; −: less than 80% growth inhibition) | − (key: +: at least 80% growth inhibition; −: less than 80% growth inhibition)
O=C(NCc1ccccc1Cl)c1ncccc1O [Compound 218] | + (key: +: at least 80% growth inhibition; −: less than 80% growth inhibition) | + (key: +: at least 80% growth inhibition; −: less than 80% growth inhibition)
COc1ccnc(C(=O)N[C@H]2CC3CC2C[C@@H]3COCc2cccc(C(F)(F)F)c2)c1O (stereo partly shown) [Compound 296] | − (key: +: at least 80% growth inhibition; −: less than 80% growth inhibition) | + (key: +: at least 80% growth inhibition; −: less than 80% growth inhibition)

SMILES | USTIMA in vitro Growth Inhibition (Ustilago maydis (USTIMA)) | RHIZSO in vitro Growth Inhibition [1]
COc1ccnc(C(=O)NC2C3(C)CCC(C3)C2(C)C)c1O (stereo not shown) [Compound 288] | − (key: +: at least 80% growth inhibition; −: less than 80% growth inhibition) | + (key: +: at least 80% growth inhibition; −: less than 80% growth inhibition)
COc1ccccc1CNC(=O)c1ncccc1O [Compound 224] | − (key: +: at least 80% growth inhibition; −: less than 80% growth inhibition) | − (key: +: at least 80% growth inhibition; −: less than 80% growth inhibition)
COc1ccnc(C(=O)NC2CCCCCCC2)c1O [Compound 282] | − (key: +: at least 80% growth inhibition; −: less than 80% growth inhibition) | − (key: +: at least 80% growth inhibition; −: less than 80% growth inhibition)
COc1ccnc(C(=O)NC2CC(C)(C)C3OC3[C@H](C)[C@H]2C)c1O (stereo partly shown) [Compound 280] | − (key: +: at least 80% growth inhibition; −: less than 80% growth inhibition) | − (key: +: at least 80% growth inhibition; −: less than 80% growth inhibition)
C[C@@H](NC(=O)c1ncccc1O)c1cccc2ccccc12 [Compound 231] | − (key: +: at least 80% growth inhibition; −: less than 80% growth inhibition) | − (key: +: at least 80% growth inhibition; −: less than 80% growth inhibition)
COc1ccnc(C(=O)N[C@@H]2OC[C@@H](OC(C)=O)[C@H](OC(C)=O)[C@H]2OC(C)=O)c1O [Compound 330] | − (key: +: at least 80% growth inhibition; −: less than 80% growth inhibition) | − (key: +: at least 80% growth inhibition; −: less than 80% growth inhibition)
COc1ccnc(C(=O)N[C@@H]2CCCC[C@H]2SC)c1O [Compound 273] | − (key: +: at least 80% growth inhibition; −: less than 80% growth inhibition) | − (key: +: at least 80% growth inhibition; −: less than 80% growth inhibition)
CC(C)C(=O)OC1CCC(NC(=O)c2ncccc2O)CC1 (stereo not shown) [Compound 210] | − (key: +: at least 80% growth inhibition; −: less than 80% growth inhibition) | − (key: +: at least 80% growth inhibition; −: less than 80% growth inhibition)
O=C(Nc1cccc(Cl)c1)c1ncccc1O [Compound 212] | − (key: +: at least 80% growth inhibition; −: less than 80% growth inhibition) | − (key: +: at least 80% growth inhibition; −: less than 80% growth inhibition)
O=C(NCCc1ccc(Cl)cc1)c1ncccc1O [Compound 233, N-(2-(4-Chlorophenyl)Ethyl)-3-Hydroxypyridine-2-Carboxamide] | + (key: +: at least 80% growth inhibition; −: less than 80% growth inhibition) | − (key: +: at least 80% growth inhibition; −: less than 80% growth inhibition)
COc1ccnc(C(=O)N[C@@H]2CC3CC2[C@H]2COC[C@@H]32)c1O (stereo partly shown) [Compound 302] | − (key: +: at least 80% growth inhibition; −: less than 80% growth inhibition) | − (key: +: at least 80% growth inhibition; −: less than 80% growth inhibition)
COc1ccnc(C(=O)N[C@H]2CO[C@@](C)(C(C)CC3=C(C)CCCC3(C)C)OC2)c1O (stereo partly shown) [Compound 318] | − (key: +: at least 80% growth inhibition; −: less than 80% growth inhibition) | + (key: +: at least 80% growth inhibition; −: less than 80% growth inhibition)
COc1ccnc(C(=O)NC2CC3CCC2C3)c1O (stereo not shown) [Compound 287] | − (key: +: at least 80% growth inhibition; −: less than 80% growth inhibition) | + (key: +: at least 80% growth inhibition; −: less than 80% growth inhibition)
COc1ccnc(C(=O)N[C@H]2CC(C)(C)[C@H](O)C(C)(C)C2)c1O [Compound 264, trans-4-Hydroxy-3,3,5,5-Tetramethylpicolinamide] | − (key: +: at least 80% growth inhibition; −: less than 80% growth inhibition) | − (key: +: at least 80% growth inhibition; −: less than 80% growth inhibition)
O=C(NC1CCCCCCC1)c1ncccc1O [Compound 203] | − (key: +: at least 80% growth inhibition; −: less than 80% growth inhibition) | + (key: +: at least 80% growth inhibition; −: less than 80% growth inhibition)
COc1ccnc(C(=O)NC/C=C(\C)CCC=C(C)C)c1O [Compound 242] | + (key: +: at least 80% growth inhibition; −: less than 80% growth inhibition) | + (key: +: at least 80% growth inhibition; −: less than 80% growth inhibition)
O=C(NCCCCc1ccccc1)c1ncccc1O [Compound 234] | − (key: +: at least 80% growth inhibition; −: less than 80% growth inhibition) | − (key: +: at least 80% growth inhibition; −: less than 80% growth inhibition)
